Data set [1] is described as follows: Average particle diameter, microscopic method (Heywood circle-corresponding diameter). It counts as physicochemical. Particulars: 10 typical crystals on photograph, hydrochloride. The text has this:
The average particle diameter is shown by a diameter of a circle having the same area as an injected area of the particle, a so-called Heywood diameter (circle-corresponding diameter) according to a microscopic method (injected image). A small amount of the crystals was put on a slide glass, and 1 to 2 drops of a hydrophilic surfactant (sesquioleic acid sorbitan) were fallen thereon to disperse them. It was photographed by means of a polarization microscope (photographing lens: 3.3 magnifications, objective lens: 20 magnifications) equipped with a photographing device. Optional 10 pieces of the typical crystals were selected on the photograph to measure a long diameter and a short diameter thereof An (projected) area of the particle was shown by long diameter×short diameter, and the particle diameter was shown by a diameter of a circle having the same area as that obtained above.

The nature of data set [2]: Hygroscopicity, cup method (weight change). It counts as physicochemical. Particulars: weight-increasing rate, 25° C., 50 to 60% RH, 15 minutes; crystals dried at 40° C. under vacuum; hydrochloride. As for the experimental part: Determined by the following cup method. To be specific, about 15 to 20 mg of the sample was put in a cylindrical cup having a diameter of 6 mm and a depth of 6 mm and left standing at a fixed temperature (25° C.) and relative humidity (50 to 60% RH) for 15 minutes to measure a weight change, whereby the hygroscopicity was evaluated.
In the following respective examples, a weight-increasing rate of 0.40% or more is shown by an evaluation criterion that the hygroscopicity is large (−); a weight-increasing rate of 0.20% or more and less than 0.40% is shown by an evaluation criterion that the hygroscopicity is ;intermediate (±); and a weight-increasing rate of less than 0.20% is shown by an evaluation criterion that the hygroscopicity is small: (+).

Structures can show the parent of a compound that is named as a salt.

As to `COc1cccc2c1C(=O)c1c(O)c3c(c(O)c1C2=O)C[C@@](O)(C(=O)CO)C[C@@H]3O[C@H]1C[C@H](N)[C@H](O)[C@H](C)O1` [Example 19, doxorubicin hydrochloride], the Average particle diameter in data set [1] was determined as 17 μm. Besides, in data set [2], the Hygroscopicity entry was “± (a weight-increasing rate of 0.20% or more and less than 0.40% is shown by an evaluation criterion that the hygroscopicity is ;intermediate (±))”.
On to `COc1cccc2c1C(=O)c1c(O)c3c(c(O)c1C2=O)C[C@@](O)(C(=O)CO)C[C@@H]3O[C@H]1C[C@H](N)[C@H](O)[C@H](C)O1` [Example 20, doxorubicin hydrochloride], for which the Average particle diameter in data set [1] stood at 7 μm. Further, the Hygroscopicity entry in data set [2] was “+ (a weight-increasing rate of less than 0.20% is shown by an evaluation criterion that the hygroscopicity is small: (+))”.
The matching figures for `COc1cccc2c1C(=O)c1c(O)c3c(c(O)c1C2=O)C[C@@](O)(C(=O)CO)C[C@@H]3O[C@H]1C[C@H](N)[C@H](O)[C@H](C)O1` [Example 21, doxorubicin hydrochloride]: 54 μm and “+ (a weight-increasing rate of less than 0.20% is shown by an evaluation criterion that the hygroscopicity is small: (+))”.
In data set [1], `COc1cccc2c1C(=O)c1c(O)c3c(c(O)c1C2=O)C[C@@](O)(C(=O)CO)C[C@@H]3O[C@H]1C[C@H](N)[C@H](O)[C@H](C)O1` [Example 22, doxorubicin hydrochloride] registered an Average particle diameter of 47 μm. For the same compound, the Hygroscopicity entry in data set [2] was “+ (a weight-increasing rate of less than 0.20% is shown by an evaluation criterion that the hygroscopicity is small: (+))”.
Turning to `COc1cccc2c1C(=O)c1c(O)c3c(c(O)c1C2=O)C[C@@](O)(C(=O)CO)C[C@@H]3O[C@H]1C[C@H](N)[C@H](O)[C@H](C)O1` [Example 23, doxorubicin hydrochloride], the Average particle diameter in data set [1] amounted to 39 μm. Further, the Hygroscopicity entry in data set [2] was “± (a weight-increasing rate of 0.20% or more and less than 0.40% is shown by an evaluation criterion that the hygroscopicity is ;intermediate (±))”.
In data set [1], `COc1cccc2c1C(=O)c1c(O)c3c(c(O)c1C2=O)C[C@@](O)(C(=O)CO)C[C@@H]3O[C@H]1C[C@H](N)[C@H](O)[C@H](C)O1` [Example 24, doxorubicin hydrochloride] displayed an Average particle diameter of 51 μm. In data set [2], the Hygroscopicity result is listed as “+ (a weight-increasing rate of less than 0.20% is shown by an evaluation criterion that the hygroscopicity is small: (+))”.
In the same order, the values of `COc1cccc2c1C(=O)c1c(O)c3c(c(O)c1C2=O)C[C@@](O)(C(=O)CO)C[C@@H]3O[C@H]1C[C@H](N)[C@H](O)[C@H](C)O1` [Example 28, doxorubicin hydrochloride] are 37 μm and “+ (a weight-increasing rate of less than 0.20% is shown by an evaluation criterion that the hygroscopicity is small: (+))”.
Turning to `COc1cccc2c1C(=O)c1c(O)c3c(c(O)c1C2=O)C[C@@](O)(C(=O)CO)C[C@@H]3O[C@H]1C[C@H](N)[C@H](O)[C@H](C)O1` [Example 30, doxorubicin hydrochloride], the Average particle diameter in data set [1] was determined as 39 μm. In addition, the Hygroscopicity result in data set [2] is on record as “+ (a weight-increasing rate of less than 0.20% is shown by an evaluation criterion that the hygroscopicity is small: (+))”.
In turn, `COc1cccc2c1C(=O)c1c(O)c3c(c(O)c1C2=O)C[C@@](O)(C(=O)CO)C[C@@H]3O[C@H]1C[C@H](N)[C@H](O)[C@H](C)O1` [Example 32, doxorubicin hydrochloride] showed an Average particle diameter in data set [1] of 34 μm. The Hygroscopicity entry in data set [2] is listed as “+ (a weight-increasing rate of less than 0.20% is shown by an evaluation criterion that the hygroscopicity is small: (+))”.
Compound `COc1cccc2c1C(=O)c1c(O)c3c(c(O)c1C2=O)C[C@@](O)(C(=O)CO)C[C@@H]3O[C@H]1C[C@H](N)[C@H](O)[C@H](C)O1` [Example 33, doxorubicin hydrochloride] came in with an Average particle diameter in data set [1] of 25 μm. The Hygroscopicity result in data set [2] is “± (a weight-increasing rate of 0.20% or more and less than 0.40% is shown by an evaluation criterion that the hygroscopicity is ;intermediate (±))”.
`COc1cccc2c1C(=O)c1c(O)c3c(c(O)c1C2=O)C[C@@](O)(C(=O)CO)C[C@@H]3O[C@H]1C[C@H](N)[C@H](O)[C@H](C)O1` [Example 34, doxorubicin hydrochloride] yielded an Average particle diameter in data set [1] of 23 μm. In data set [2], the Hygroscopicity entry is “± (a weight-increasing rate of 0.20% or more and less than 0.40% is shown by an evaluation criterion that the hygroscopicity is ;intermediate (±))”.
As to `COc1cccc2c1C(=O)c1c(O)c3c(c(O)c1C2=O)C[C@@](O)(C(=O)CO)C[C@@H]3O[C@H]1C[C@H](N)[C@H](O)[C@H](C)O1` [Example 35, doxorubicin hydrochloride], in data set [1], the Average particle diameter amounted to 20 μm. Moreover, the Hygroscopicity entry in data set [2] is “± (a weight-increasing rate of 0.20% or more and less than 0.40% is shown by an evaluation criterion that the hygroscopicity is ;intermediate (±))”.
Turning to `COc1cccc2c1C(=O)c1c(O)c3c(c(O)c1C2=O)C[C@@](O)(C(=O)CO)C[C@@H]3O[C@H]1C[C@H](N)[C@H](O)[C@H](C)O1` [Example 38, doxorubicin hydrochloride], in data set [1], the Average particle diameter was found to be 28 μm. In data set [2], the Hygroscopicity result was “+ (a weight-increasing rate of less than 0.20% is shown by an evaluation criterion that the hygroscopicity is small: (+))”.
As for `COc1cccc2c1C(=O)c1c(O)c3c(c(O)c1C2=O)C[C@@](O)(C(=O)CO)C[C@@H]3O[C@H]1C[C@H](N)[C@H](O)[C@H](C)O1` [Example 40, doxorubicin hydrochloride], in data set [1], the Average particle diameter is recorded as 18 μm. Further, in data set [2], the Hygroscopicity entry is “± (a weight-increasing rate of 0.20% or more and less than 0.40% is shown by an evaluation criterion that the hygroscopicity is ;intermediate (±))”.
Take `COc1cccc2c1C(=O)c1c(O)c3c(c(O)c1C2=O)C[C@@](O)(C(=O)CO)C[C@@H]3O[C@H]1C[C@H](N)[C@H](O)[C@H](C)O1` [Example 42, doxorubicin hydrochloride]: the Average particle diameter in data set [1] stood at 34 μm. Besides, in data set [2], the Hygroscopicity entry is reported as “+ (a weight-increasing rate of less than 0.20% is shown by an evaluation criterion that the hygroscopicity is small: (+))”.
In data set [1], `COc1cccc2c1C(=O)c1c(O)c3c(c(O)c1C2=O)C[C@@](O)(C(=O)CO)C[C@@H]3O[C@H]1C[C@H](N)[C@H](O)[C@H](C)O1` [Example 44, doxorubicin hydrochloride] came in with an Average particle diameter of 28 μm. Moreover, in data set [2], the Hygroscopicity result is reported as “+ (a weight-increasing rate of less than 0.20% is shown by an evaluation criterion that the hygroscopicity is small: (+))”.
Compound `COc1cccc2c1C(=O)c1c(O)c3c(c(O)c1C2=O)C[C@@](O)(C(=O)CO)C[C@@H]3O[C@H]1C[C@H](N)[C@H](O)[C@H](C)O1` [Example 45, doxorubicin hydrochloride] showed an Average particle diameter in data set [1] of 46 μm. Moreover, in data set [2], the Hygroscopicity result is reported as “+ (a weight-increasing rate of less than 0.20% is shown by an evaluation criterion that the hygroscopicity is small: (+))”.
Take `COc1cccc2c1C(=O)c1c(O)c3c(c(O)c1C2=O)C[C@@](O)(C(=O)CO)C[C@@H]3O[C@H]1C[C@H](N)[C@H](O)[C@H](C)O1` [Example 47, doxorubicin hydrochloride]: in data set [1], the Average particle diameter came out at 60 μm. Besides, in data set [2], the Hygroscopicity entry is “± (a weight-increasing rate of 0.20% or more and less than 0.40% is shown by an evaluation criterion that the hygroscopicity is ;intermediate (±))”.

Values taken from patent US6653455B1, “Crystallization of doxorubicin hydrochloride” (Mercian Corporation, priority 1998, dated 2003).
